US6596713B1, “Steroid esters and amides, process for their production and their pharmaceutical use” (priority 1994, dated 2003)

Format: physicochemical
Details: temperature in which 50 mg of substance is dissolved in 1 ml of a 1:4 benzyl benzoate/castor oil mixture; lower temperature = better solubility

In the case of “6′-(4-Fluorophenyl)-17α-(3-hydroxypropyl)-9,11α-dihydro-17β-hydroxy-4′H-naphtho[3′,2′,1′:10,9,11]estr-4-en-3-one [Ref. 6, reference compound]”, the Solubility is reported as 23 °C.
Compound “6′-(4-Fluorophonyl)-17α-(3-hydroxyprop-1-inyl)-9,11α-dihydro-17β-hydroxy-4′H-naphtho[3′,2′,1′:10,9,11]estr-4-on-3-one [Ref. 5, reference compound]” has a Solubility of 23 °C.
Work on CC(C)C(=O)OC/C=C\[C@]1(O)CC[C@H]2[C@@H]3CCC4=CC(=O)CC[C@@]45Cc4cc(-c6ccc(C#N)cc6)ccc4[C@@H](C[C@@]21C)[C@@H]35 [Example 6, (Z)-6′-(4-Cyanophenyl)-9,11α-dihydro-17β-hydroxy-17α-[3-(1-oxo-2-methylpropoxy)-1-propenyl]-4′H-naphtho[3′,2′,1′:10,9,11]estr-4-en-3-one] yielded a Solubility of 100 °C.
With CC(C)(C)CC(=O)OC/C=C\[C@]1(O)CC[C@H]2[C@@H]3CCC4=CC(=O)CC[C@@]45Cc4cc(-c6ccc(C#N)cc6)ccc4[C@@H](C[C@@]21C)[C@@H]35 [Example 7, (Z)-6′-(4-Cyanophenyl)-9,11α-dihydro-17α-[3-(3,3-dimethyl-1-oxobutoxy)-1-propenyl]-17β-hydroxy-4′H-naphtho[3′,2′,1′:10,9,11]estr-4-en-3-one] the Solubility was 23 °C.
For COC(=O)CCC(=O)OCC=CC1(O)CCC2C3CCC4=CC(=O)CCC45Cc4cc(-c6ccc(C#N)cc6)ccc4C(CC21C)C35 (stereo not drawn) [Example 9, (Z)-6′-(4-Cyanophenyl)-9,11α-dihydro-17α-[3-(1,4-dioxo-4-methoxybutoxy)-1-propenyl]-17β-hydroxy-4′H-naphtho[3′,2′,1′:10,9,11]estr-4-en-3-one], the Solubility was 50 °C.
For CCOCCC(=O)OCC=CC1(O)CCC2C3CCC4=CC(=O)CCC45Cc4cc(-c6ccc(C#N)cc6)ccc4C(CC21C)C35 (stereo not drawn) [Example 11, (Z)-6′-(4-Cyanophenyl)-9,11α-dihydro-17α-[3-(3-ethoxy-1-oxopropoxy)-1-propenyl]-17βhydroxy-4′H-naphtho[3′,2′,1′:10,9,11]estr-4-en-3-one], the Solubility was 100 °C.
CC12CC3c4ccc(-c5ccc(C#N)cc5)cc4CC45CCC(=O)C=C4CCC(C35)C1CCC2(O)C=CCOC(=O)CN (stereo not drawn) [Example 12, (Z)-17α-[3-[(Aminoacetyl)oxy]-1-propenyl]-6′-(4-cyanophenyl)-9,11α-dihydro-17β-hydroxy-4′H-naphtho[3′,2′,1′:10,9,11]estr-4-en-3-one] showed a Solubility of 100 °C.
CC(N)C(=O)OCC=CC1(O)CCC2C3CCC4=CC(=O)CCC45Cc4cc(-c6ccc(C#N)cc6)ccc4C(CC21C)C35 (stereo not drawn) [Example 14, [S-(Z)]-17α-[3-(2-Amino-1-oxopropoxy)-1-propenyl]-6′-(4-cyanophenyl)-9,11α-dihydro-17β-hydroxy-4′H-naphtho [3′,2′,1′:10,9,11]estr-4-en-3-one] gave a Solubility of 23 °C.
In the case of CCCCCCC(=O)OCC=CC1(O)CCC2C3CCC4=CC(=O)CCC45Cc4cc(-c6cccnc6)ccc4C(CC21C)C35 (stereo not drawn) [Example 20, (Z)-9,11α-Dihydro-17βhydroxy-17α-[3-[(1-oxoheptyl)oxy]-1-propenyl]-6′-(3-pyridinyl)-4′H-naphtho[3′,2′,1′:10,9,11]estr-4-en-3-one], the Solubility is reported as 50 °C.
With CC(NC(=O)OC(C)(C)C)C(=O)OCCCC1(O)CCC2C3CCC4=CC(=O)CCC4=C3C(c3ccc(N(C)C)cc3)CC21C [Example 27, (S)-11β-[4-(Dimethylamino)phenyl]-17β-[3-[2-[[(1,1-dimethylethoxy)-carbonyl]amino]-1-oxopropoxy]propyl]-17α-hydroxy-13α-estra-4,9-dien-3-one] the Solubility was 23 °C.
With CC(C)[C@H](NC(=O)OC(C)(C)C)C(=O)OCCC[C@@]1(O)CC[C@H]2[C@@H]3CCC4=CC(=O)CCC4=C3[C@@H](c3ccc(N(C)C)cc3)C[C@]21C [Example 29, (S)-11β-[4-(Dimethylamino)phenyl]-17α-[3-[2-[[(1,1-dimethylethoxy)-carbonyl]amino]-3-methyl-1-oxobutoxy]-1-propyl]-17α-hydroxy-13α-estra-4,9-dien-3-one] the Solubility was 23 °C.
C[C@H](N)C(=O)OC/C=C\[C@]1(O)CC[C@H]2[C@@H]3CCC4=CC(=O)CC[C@@H]4[C@H]3[C@@H](c3ccc(N(C)C)cc3)C[C@@]21C [Example 30, [S-(Z)]-17α-[3-(2-Amino-1-oxopropoxy)-1-propenyl]-11β-[4-(dimethylamino)phenyl]-17βhydroxyestr-4-en-3-one] gave a Solubility of 50 °C.
CC(NC(=O)OC(C)(C)C)C(=O)OCC=CC1(O)CCC2C3CCC4=CC(=O)CCC4C3C(c3ccc(N(C)C)cc3)CC21C (stereo not drawn) [Example 31, [S-(Z)]-11β-[4-(Dimethylamino)phenyl]-17α-[3-[2-[[(1,1-dimethylethoxy)carbonyl]amino]-1-oxopropoxy]-1-propenyl]-17β-hydroxyestr-4-en-3-one] showed a Solubility of 23 °C.
In the case of CC(C)C(NC(=O)OC(C)(C)C)C(=O)OCC=CC1(O)CCC2C3CCC4=CC(=O)CCC4C3C(c3ccc(N(C)C)cc3)CC21C (stereo not drawn) [Example 32, [S-(Z)]-11β-[4-(Dimethylamino)phenyl]-17α-[3-[2-[(1,1-dimethylethoxy)carbonyl]amino]-3-methyl-1-oxobutoxyl]-1-propenyl]-17β-hydroxyestr-4-en-3-one], the Solubility is reported as 23 °C.
With CC(NC(=O)OC(C)(C)C)C(=O)OCC=CC1(O)CCC2C3CCC4=CC(=O)CCC4C3C(c3ccc(-c4ccc(C#N)cc4)cc3)CC21C (stereo not drawn) [Example 33, [S-(z)]-4′-[17α-[3-[2-[[(1,1-Dimethylethoxy)carbonyl]amino]-1-oxopropoxy]-1-propenyl]-17β-hydroxy-3-oxoestr-4-en-11β-yl][1,1′-biphenyl]-4-carbonitrile] the Solubility was 50 °C.
Compound CC(C)C(NC(=O)OC(C)(C)C)C(=O)OCC=CC1(O)CCC2C3CCC4=CC(=O)CCC4C3C(c3ccc(-c4ccc(C#N)cc4)cc3)CC21C (stereo not drawn) [Example 34, [S-(Z)]-4′-[17α-[3-[2-[[(1,1-Dimethylethoxy)carbonyl]amino]-3-methyl-1-oxobutoxy]-1-propenyl]-17β-hydroxy-3-oxoestr-4-en-11β-yl][1,1′-biphenyl]-4-carbonitrile] has a Solubility of 50 °C.
Work on CN(C)c1ccc(C2CC3(C)C(CCC3(O)CCCOC(=O)CNC(=O)OC(C)(C)C)C3CCC4=CC(=O)CCC4=C23)cc1 [Example 36, (S)-11β-[4-(Dimethylamino)phenyl]-17β-[3-[[[(1,1-dimethylethoxy)carbonyl]amino]acetyloxy]propyl]-17α-hydroxy-13α-estra-4,9-dien-3-one] yielded a Solubility of 23 °C.
Compound CN(C)c1ccc(C2CC3(C)C(CCC3(O)C=CCOC(=O)CNC(=O)OC(C)(C)C)C3CCC4=CC(=O)CCC4C23)cc1 (stereo not drawn) [Example 37, [S-(Z)]-11β-[4-(Dimethylamino)phenyl]-17α-[3-[[[(1,1-dimethylethoxy)carbonyl]amino]acetyloxy]-1-propenyl]-17β-hydroxyestr-4-en-3-one] has a Solubility of 23 °C.
In the case of CC(C)(C)OC(=O)NCC(=O)OCC=CC1(O)CCC2C3CCC4=CC(=O)CCC4C3C(c3ccc(-c4ccc(C#N)cc4)cc3)CC21C (stereo not drawn) [Example 38, [S-(Z)]-4′-[17α-[3-[[[(1,1-Dimethylethoxy)carbonyl]-amino]acetyloxy]-1-propenyl]-17β-hydroxy-3-oxoestr-4-en-11β-yl][1,1′-biphenyl]-4-carbonitrile], the Solubility is reported as 23 °C.
With CC(C)C(N)C(=O)OCC=CC1(O)CCC2C3CCC4=CC(=O)CCC4C3C(c3ccc(-c4ccc(C#N)cc4)cc3)CC21C (stereo not drawn) [Example 39, [S-(Z)]-4′-[17α-[3-[2-Amino-3-methyl-1-oxobutoxy]-1-propenyl]-17β-hydroxy-3-oxoestr-4-en-11β-yl][1,1′-biphenyl]-4-carbonitrile] the Solubility was 50 °C.
With CC12CC3c4ccc(-c5ccc(C#N)cc5)cc4CC45CCC(=O)C=C4CCC(C35)C1CCC2(O)C=CCO (stereo not drawn) [Ref. 1, (Z)-6′-(4-cyanophenyl)-9,11α-dihydro-17β-hydroxy-17α-(3-hydroxy-1-propenyl)-4′H-naphtho[3′,2′,1′:10,9,11]estr-4-en-3-one, reference compound] the Solubility was >>100 °C.
For C[C@]12C[C@@H]3c4ccc(-c5cccnc5)cc4C[C@]45CCC(=O)C=C4CC[C@H]([C@H]35)[C@@H]1CC[C@@]2(O)/C=C\CO [Ref. 2, (Z)-9,11α-dihydro-17β-hydroxy-17α-(3-hydroxy-1-propenyl)-6′-(3-pyridinyl)-4′H-naphtho[3′,2′,1′:10,9,11]estr-4-en-3-one, reference compound], the Solubility was >>100 °C.
“(S)-6′-(4-Fluorophanyl)-9,11α-dihydro-17α-[3-[2-[[(1,1-dimethylethoxy) carbonyl]amino]-1-oxopropoxy]-1-propyl]-17β-hydroxy-4′H-naphtho[3′,2′,1′:10,9,11]estr-4-on-3-one [Example 43]” gave a Solubility of 23 °C.
With “(S)-6′-(4-Fluorophanyl)-9,11α-dihydro-17α-[3-[2-[[(1,1-dimethylethoxy)carbonyl]amino]-1-oxopropoxy]-1-propinyl]-17β-hydroxy-4′H-naphtho[3′,2′,1′;10,9,11]estr-4-en-3-one [Example 42]” the Solubility was 23 °C.
“(S-(Z)]-6′-(4-Cyanophenyl)-9,11α-dihydro-17α-[3-[2-[[(1,1-dimethylethoxy)carbonyl]amino]-1-oxopropoxy]-1-propenyl]-17β-hydroxy-4′H-naphtho[3′,2′,1′:10,9,11]estr-4-en-3-one [Example 15]” showed a Solubility of 23 °C.
With “(Z)-6′-(4-Cyanophenyl)-9,11α-dihydro-17α-[3-(1,4-dioxo-4-ethoxybutoxy)-1-propenyl]-17β-hydroxy-4′H-naphtho[3′,2′,1′:10,9,11]estr-4-en-3-one [Example 10]” the Solubility was 50 °C.
For “(Z)-6′-(4-Cyanophenyl)-9,11α-dihydro-17α-[3-[[[[(1,1-dimethylethoxy)carbonyl]-amino]acetyl]oxy]-1-propenyl]-17βhydroxy-4′H-naphtho[3′,2′,1′:10,9,11]estr-4-en-3-one [Example 13]”, the Solubility was 50 °C.
“(Z)-6′-(4-Cyanophenyl)-9,11α-dihydro-17α-hydroxy-17α-[3-[(1-oxododecyl)oxy]-1-propenyl]-4′H-naphtho[3′,2′,1′:10,9,11]estr-4-en-3-one [Example 5]” showed a Solubility of 23 °C.
With “(Z)-6′-(4-Cyanophenyl)-9,11α-dihydro-17β-hydroxy-17α-[3-[(1-oxoheptyl)oxy]-1-propenyl]-4′H-naphtho[3′,2′,1′:10,9,11]estr-4-en-3-one [Example 3]” the Solubility was 23 °C.
